According to ChEMBL document CHEMBL5257062, “Synthesis, in vitro cytotoxicity evaluation and mechanism of 5' monosubstituted chalcone derivatives as antitumor agents” (Bioorg Med Chem Lett, 2023):
Activity calls are given as the source filed them. No cut-off for these calls is given here.

Experiments:
[1] = Cytotoxicity against HUVEC cells; format: toxicity, cell-based; settings: human
[2] = tested on: K562; assay: Cytotoxicity against human K562 cells by MTT assay; format: functional, cell-based
[3] = tested on: MDA-MB-231; assay: Cytotoxicity against human MDA-MB-231 cells; format: functional, cell-based
[4] = tested on: HepG2; assay: Cytotoxicity against human HepG2 cells by MTT assay; format: functional, cell-based
[5] = Cytotoxicity against HEK293T cells; format: toxicity, cell-based, HEK-293T; settings: human
[6] = tested on: HT-29; assay: Cytotoxicity against human HT-29 cells by MTT assay; format: functional, cell-based
[7] = tested on: K562; assay: Induction of cell cycle arrest in human K562 cells assessed as accumulation of cells at S phase at 20 uM incubated for 24 hrs by flow cytometry (reference value: 17.51%); format: functional
[8] = tested on: HepG2; assay: Inhibition of cell migration human HepG2 cells assessed as migration distance at 1 uM incubated for 12 hrs by wound healing assay (reference value: 566.76 micrometer); format: functional
[9] = tested on: HepG2; assay: Inhibition of cell migration human HepG2 cells assessed as migration distance at 1 uM incubated for 48 hrs by wound healing assay (reference value: 0 micrometer); format: functional
[10] = tested on: K562; assay: Induction of cell cycle arrest in human K562 cells assessed as accumulation of cells at G1 phase at 2 uM incubated for 6 hrs by flow cytometry (reference value: 57.73%); format: functional
[11] = tested on: K562; assay: Induction of cell cycle arrest in human K562 cells assessed as accumulation of cells at G1 phase at 20 uM incubated for 24 hrs by flow cytometry (reference value: 82.22%); format: functional
[12] = tested on: K562; assay: Induction of cell cycle arrest in human K562 cells assessed as accumulation of cells at S phase at 2 uM incubated for 6 hrs by flow cytometry (reference value: 28.87%); format: functional
[13] = tested on: K562; assay: Induction of cell cycle arrest in human K562 cells assessed as accumulation of cells at G2 phase at 20 uM incubated for 12 hrs by flow cytometry (reference value: 11.93%); format: functional
[14] = tested on: K562; assay: Induction of cell cycle arrest in human K562 cells assessed as accumulation of cells at S phase at 2 uM incubated for 24 hrs by flow cytometry (reference value: 17.51%); format: functional
[15] = tested on: HepG2; assay: Inhibition of cell migration human HepG2 cells assessed as migration distance at 0.3 uM incubated for 48 hrs by wound healing assay (reference value: 0 micrometer); format: functional
[16] = tested on: K562; assay: Induction of apoptosis in human K562 cells at 20 uM after 24 hrs by annexin V-FITC and PI staining based method (reference value: 9%); format: functional
[17] = tested on: K562; assay: Induction of cell cycle arrest in human K562 cells assessed as accumulation of cells at G2 phase at 2 uM incubated for 24 hrs by flow cytometry (reference value: 0.27%); format: functional
[18] = tested on: HepG2; assay: Inhibition of cell migration human HepG2 cells assessed as migration distance at 0.3 uM incubated for 24 hrs by wound healing assay (reference value: 424.41 micrometer); format: functional
[19] = tested on: K562; assay: Induction of apoptosis in human K562 cells assessed as inhibition of cell growth after 12 to 72 hrs; format: functional, cell-based; settings: dose 0.2-20 µM, time 12-72 hrs
[20] = tested on: K562; assay: Induction of apoptosis in human K562 cells at 2 uM after 12 hrs by annexin V-FITC and PI staining based method (reference value: 8.4%); format: functional
[21] = tested on: K562; assay: Induction of apoptosis in human K562 cells at 2 uM after 24 hrs by annexin V-FITC and PI staining based method (reference value: 9%); format: functional
[22] = tested on: K562; assay: Induction of cell cycle arrest in human K562 cells assessed as accumulation of cells at G2 phase at 2 uM incubated for 12 hrs by flow cytometry (reference value: 11.93%); format: functional
[23] = tested on: K562; assay: Induction of cell cycle arrest in human K562 cells assessed as accumulation of cells at G1 phase at 20 uM incubated for 12 hrs by flow cytometry (reference value: 71.17%); format: functional
[24] = tested on: K562; assay: Induction of apoptosis in human K562 cells at 20 uM after 12 hrs by annexin V-FITC and PI staining based method (reference value: 8.4%); format: functional
[25] = tested on: K562; assay: Induction of apoptosis in human K562 cells assessed as inhibition of cell growth at 2 to 20 uM; format: functional, cell-based; settings: dose 2-20 µM, time 12-72 hrs, TDE = time-dependent effect
[26] = tested on: K562; assay: Induction of apoptosis in human K562 cells at 2 uM after 48 hrs by annexin V-FITC and PI staining based method (reference value: 9.8%); format: functional
[27] = tested on: K562; assay: Induction of cell cycle arrest in human K562 cells assessed as accumulation of cells at G2 phase at 20 uM incubated for 6 hrs by flow cytometry (reference value: 13.40%); format: functional
[28] = tested on: HepG2; assay: Inhibition of cell migration human HepG2 cells assessed as migration distance at 3 uM incubated for 24 hrs by wound healing assay (reference value: 424.41 micrometer); format: functional
[29] = tested on: K562; assay: Induction of apoptosis in human K562 cells at 20 uM after 48 hrs by annexin V-FITC and PI staining based method (reference value: 9.8%); format: functional
[30] = tested on: HepG2; assay: Inhibition of cell migration human HepG2 cells assessed as migration distance at 1 uM incubated for 36 hrs by wound healing assay (reference value: 243.56 micrometer); format: functional
[31] = tested on: HepG2; assay: Inhibition of cell migration human HepG2 cells at 0.3 to 3 uM incubated for 48 hrs by Transwell assay; format: functional, cell-based; settings: dose 0.3-3 µM
[32] = tested on: K562; assay: Induction of cell cycle arrest in human K562 cells assessed as accumulation of cells at G2 phase at 20 uM incubated for 24 hrs by flow cytometry (reference value: 0.27%); format: functional
[33] = tested on: HepG2; assay: Inhibition of cell migration human HepG2 cells assessed as migration distance at 0.3 uM incubated for 12 hrs by wound healing assay (reference value: 566.76 micrometer); format: functional
[34] = tested on: K562; assay: Induction of apoptosis in human K562 cells assessed as appearance of apoptotic bodies at 2 to 20 uM by light microscopic analysis; format: functional, cell-based; settings: dose 2-20 µM, TDE = time-dependent effect
[35] = tested on: HepG2; assay: Inhibition of cell migration human HepG2 cells assessed as migration distance at 0.3 uM incubated for 36 hrs by wound healing assay (reference value: 243.56 micrometer); format: functional
[36] = tested on: K562; assay: Induction of cell cycle arrest in human K562 cells assessed as accumulation of cells at G1 phase at 20 uM incubated for 6 hrs by flow cytometry (reference value: 57.73%); format: functional
[37] = tested on: HepG2; assay: Inhibition of cell migration human HepG2 cells assessed as migration distance at 3 uM incubated for 36 hrs by wound healing assay (reference value: 243.56 micrometer); format: functional
[38] = tested on: HepG2; assay: Inhibition of cell migration human HepG2 cells assessed as migration distance at 3 uM incubated for 12 hrs by wound healing assay (reference value: 566.76 micrometer); format: functional
[39] = tested on: K562; assay: Induction of cell cycle arrest in human K562 cells assessed as accumulation of cells at G1 phase at 2 uM incubated for 12 hrs by flow cytometry (reference value: 71.17%); format: functional
[40] = tested on: HCT-116; assay: Cytotoxicity against human HCT-116 cells; format: functional, cell-based
[41] = tested on: K562; assay: Induction of cell cycle arrest in human K562 cells assessed as accumulation of cells at S phase at 20 uM incubated for 6 hrs by flow cytometry (reference value: 28.87%); format: functional
[42] = tested on: HepG2; assay: Inhibition of cell migration human HepG2 cells assessed as migration distance at 1 uM incubated for 24 hrs by wound healing assay (reference value: 424.41 micrometer); format: functional
[43] = tested on: K562; assay: Induction of cell cycle arrest in human K562 cells assessed as accumulation of cells at G2 phase at 2 uM incubated for 6 hrs by flow cytometry (reference value: 13.40%); format: functional
[44] = tested on: K562; assay: Induction of cell cycle arrest in human K562 cells assessed as accumulation of cells at G1 phase at 2 uM incubated for 24 hrs by flow cytometry (reference value: 82.22%); format: functional
[45] = tested on: K562; assay: Induction of cell cycle arrest in human K562 cells assessed as accumulation of cells at S phase at 2 uM incubated for 12 hrs by flow cytometry (reference value: 16.9%); format: functional
[46] = tested on: HepG2; assay: Inhibition of cell migration human HepG2 cells assessed as migration distance at 3 uM incubated for 48 hrs by wound healing assay (reference value: 0 micrometer); format: functional
[47] = tested on: K562; assay: Induction of cell cycle arrest in human K562 cells assessed as accumulation of cells at S phase at 20 uM incubated for 12 hrs by flow cytometry (reference value: 16.9%); format: functional

CC[C@@]1(O)C(=O)OCc2c1cc1n(c2=O)Cc2cc3ccccc3nc2-1 [CAMPTOTHECIN]
IC50 [1]: 0.06 µM
IC50 [2]: 0.04 µM
IC50 [3]: > 100 µM
IC50 [4]: 0.02 µM
IC50 [5]: 0.03 µM
IC50 [6]: 0.07 µM

COc1ccc(-c2cc(C(=O)/C=C/c3ccccc3)c(OC)cc2OC)cc1
IC50 [2]: 7.26 µM
IC50 [4]: > 10 µM
IC50 [6]: > 10 µM

COc1cc(OC)c(-c2ccc(C(F)(F)F)cc2)cc1C(=O)/C=C/c1ccccc1
IC50 [2]: 8.7 µM
IC50 [4]: > 10 µM
IC50 [6]: > 10 µM

COc1cc(OC)c(-c2ccc(C)cc2)cc1C(=O)/C=C/c1ccccc1
IC50 [2]: 2.59 µM
IC50 [4]: > 10 µM
IC50 [6]: 9.29 µM

COc1cc(OC)c(-c2ccc(OC(C)=O)cc2)cc1C(=O)/C=C/c1ccccc1
IC50 [2]: > 10 µM
IC50 [4]: > 10 µM
IC50 [6]: > 10 µM

COc1cc(OC)c(-c2ccc(C#N)cc2)cc1C(=O)/C=C/c1ccccc1
IC50 [2]: > 10 µM
IC50 [4]: > 10 µM
IC50 [6]: > 10 µM

COc1cc(OC)c(-c2ccc(F)cc2)cc1C(=O)/C=C/c1ccccc1
Activity [7]: 44.38%
Activity [8]: 551.11 um
Activity [9]: 301.44 um
Activity [10]: 58.77%
Activity [11]: 54.29%
Activity [12]: 29.62%
Activity [13]: 10.88%
IC50 [1]: 19.7 µM
Activity [14]: 37.74%
IC50 [2]: 1.97 µM
Activity [15]: 245.7 um
Activity [16]: 19.8%
Activity [17]: 7.97%
Activity [18]: 438 um
Activity [19]: Dose-Dependent Effect
IC50 [3]: 10.7 µM
IC50 [4]: 2.23 µM
Activity [20]: 8.1%
Activity [21]: 12%
Activity [22]: 12.29%
IC50 [5]: 5.19 µM
Activity [23]: 52.57%
Activity [24]: 11.9%
Activity [25]: Tde
Activity [26]: 32%
Activity [27]: 9.25%
Activity [28]: 488.94 um
Activity [29]: 62.6%
Activity [30]: 401.52 um
inhibition [31]: Active
Activity [32]: 1.33%
Activity [33]: 532.4 um
Activity [34]: Tde
Activity [35]: 294.54 um
Activity [36]: 60.44%
Activity [37]: 423.28 um
IC50 [6]: 7.69 µM
Activity [38]: 534.71 um
Activity [39]: 58.31%
IC50 [40]: 5.17 µM
Activity [41]: 30.33%
Activity [42]: 486.95 um
Activity [43]: 11.61%
Activity [44]: 54.29%
Activity [45]: 29.39%
Activity [46]: 337.11 um
Activity [47]: 36.55%

COc1cc(OC)c(-c2ccccc2)cc1C(=O)/C=C/c1ccccc1
IC50 [2]: 3.83 µM
IC50 [4]: > 10 µM
IC50 [6]: 9.17 µM

COc1cc(OC)c(-c2ccc(-c3ccco3)cc2)cc1C(=O)/C=C/c1ccccc1
IC50 [2]: 4.69 µM
IC50 [4]: 5.91 µM
IC50 [6]: 6.17 µM
